Source: patent US20150366836A1, “METHOD AND PHARMACEUTICAL COMPOSITION FOR TREATING COLORECTAL CANCER” (National Dong Hua University, priority 2014, published 2015)

Assays:
Type in all cases: cell-based
HT-29 cells [1] = test: MTT assay cell viability, HT-29 cells
Experimental: (§1) Two cell lines were used in this study, Caco2 cells and HT-29 cells. Both of them are colorectal cancer cells. Caco2 cells and HT-29 cells were maintained in DMEM (or RPMI) supplemented with 20% or 10% fetal bovine serum (FBS; GIBCO), pH 7.4 at 37° C. with continuous circulation of 5% CO2 incubator. The medium was changed every 2 days and the cells were trypsinized using trypsin/EDTA when reaching 80%-90% confluence.
(§2) In this example, the effects of HCD, PG, and 5-FU on the viability of Caco2 cells and HT-29 cells were examined. The MTT assay was employed for this purpose. The MTT (3-(4-,5-dimethylthiazol-2-yl)-2,5-diphenyltetrazolium bromide) assay is a common colorimetric method in the field for cell viability analysis. MTT (yellow tetrazolium salt) is reduced to a purple formazan by living cells and detection to the purple formazan can be calculated as the cell viability.
(§3) Briefly, cells (Caco2 or HT-29) were seeded in 96-well plate (7×10^3 cell per well) and incubated overnight (37° C., 5% CO2).
(§4) On the other hand, in the pretreatment analysis, cells (Caco2 or HT-29) were seeded in 96-well plate (7×10^3 cell per well) and incubated overnight (37° C., 5% CO2). In according to the treatments listed in the Table 1, Cells were pre-treated by HCD or PG for 6, 12, 24, 36, or 48 hr and then were treated by 5-FU for additional 24 hr.

Caco2 cells [2] = test: Cell cycle analysis by flow cytometer (PI staining), Caco2 cells
Experimental: (§5) The results of Example 2 in cell viability hinted the effects of HCD, PG, and 5-FU on arresting cell cycle. In this example, the phase of cell cycle of Caco2 and HT-29 cells after the treatment listed in Table 1 was determined by flow cytometer. Briefly, 7×10^4 cells per well were inoculated in 12-wells plate and incubated overnight at 37° C., 5% CO2. Then, cells were treated according to the treatment listed in Table 1 by indicated time period. After treatment, cells were harvested by trypsin and fixed with 70% ethanol at −20° C. for at least 3 hr. The cells were washed in cold PBS twice and then incubated with 1 mL (v/v) staining solution (20 μg/mL propidium iodide (PI), 0.1% Triton X-100, 0.2 mg/mL Rnase) at 37° C. for 30 minutes. Lastly, cells were analyzed by flow cytometer (Cytomics™ FC500, Backman, Fullerton, Calif., USA). Data from 10,000 cells were collected for each experimental group.

Caco2 cells [3] = test: MTT assay cell viability, Caco2 cells
Experimental: as §1, §2, §3, §4

HT-29 cells [4] = test: Cell cycle analysis by flow cytometer (PI staining), HT-29 cells
Experimental: as §5

CCCCCC1=C/C(=C/c2[nH]c(-c3ccc[nH]3)cc2OC)N=C1C [PG, Prodigiosin]
effect of pre-treating on efficacy of 5-FU in the subsequent treatment (MTT) (HT-29 cells [1]; HT-29, pre-treatment 6-48 hr, then 5-FU 2 μM 24 hr): significantly enhanced the efficacy of 5-FU
IC50 (HT-29 cells [1]; Homo sapiens, HT-29 cells, 36 hr treatment): 500 nM
G0/G1 (%) (Caco2 cells [2]; Caco2, 0.5 μM, 36 hr): 51.3 ± 3.8%
G2/M (%) (Caco2 cells [2]; Caco2, 0.5 μM, 36 hr): 14.93 ± 4.27%
S (%) (Caco2 cells [2]; Caco2, 0.5 μM, 36 hr): 12.97 ± 0.49%
Sub G1 (%) (Caco2 cells [2]; Caco2, 0.5 μM, 36 hr): 18.67 ± 2.06 %
G0/G1 (%) (Caco2 cells [2]; Caco2, 0.5 μM, 48 hr): 53.43 ± 13.12%
G2/M (%) (Caco2 cells [2]; Caco2, 0.5 μM, 48 hr): 15.9 ± 8.23%
S (%) (Caco2 cells [2]; Caco2, 0.5 μM, 48 hr): 18.17 ± 7.05%
Sub G1 (%) (Caco2 cells [2]; Caco2, 0.5 μM, 48 hr): 11.67 ± 4.07%
G0/G1 (%) (Caco2 cells [2]; Caco2, 2 μM, 36 hr): 44.53 ± 7.05%
G2/M (%) (Caco2 cells [2]; Caco2, 2 μM, 36 hr): 17.33 ± 1.95%
S (%) (Caco2 cells [2]; Caco2, 2 μM, 36 hr): 14.33 ± 1.76%
Sub G1 (%) (Caco2 cells [2]; Caco2, 2 μM, 36 hr): 21.47 ± 3.41 %
G0/G1 (%) (Caco2 cells [2]; Caco2, 2 μM, 48 hr): 49.87 ± 9.56%
G2/M (%) (Caco2 cells [2]; Caco2, 2 μM, 48 hr): 12.43 ± 4.48%
S (%) (Caco2 cells [2]; Caco2, 2 μM, 48 hr): 15 ± 6.14%
Sub G1 (%) (Caco2 cells [2]; Caco2, 2 μM, 48 hr): 18.77 ± 7.49%
G0/G1 (%) (Caco2 cells [2]; Caco2, 5 μM, 36 hr): 37.9 ± 6.04 %
G2/M (%) (Caco2 cells [2]; Caco2, 5 μM, 36 hr): 15.43 ± 7.86%
S (%) (Caco2 cells [2]; Caco2, 5 μM, 36 hr): 14.23 ± 3.12%
Sub G1 (%) (Caco2 cells [2]; Caco2, 5 μM, 36 hr): 30.07 ± 6.7 %
G0/G1 (%) (Caco2 cells [2]; Caco2, 5 μM, 48 hr): 45.83 ± 3.3%
G2/M (%) (Caco2 cells [2]; Caco2, 5 μM, 48 hr): 8.7 ± 2.07 %
S (%) (Caco2 cells [2]; Caco2, 5 μM, 48 hr): 11.67 ± 2%
Sub G1 (%) (Caco2 cells [2]; Caco2, 5 μM, 48 hr): 33.53 ± 6.73 %
G2/M phase after pre-treatment then 5-FU (in words) (Caco2 cells [2]; Caco2, 12 and 24 hr pretreatment of 1 or 2 μM, then 5-FU): decreased
effect of pre-treating on efficacy of 5-FU in the subsequent treatment (MTT) (Caco2 cells [3]; Caco2, pre-treatment 6-48 hr, then 5-FU 2 μM 24 hr): significantly enhanced the efficacy of 5-FU
IC50 (Caco2 cells [3]; Homo sapiens, Caco-2, Caco2 cells, 48 hr treatment): 2000 nM
G0/G1 (%) (HT-29 cells [4]; HT-29, 0.5 μM, 24 hr): 65.3 ± 5.66 %
G2/M (%) (HT-29 cells [4]; HT-29, 0.5 μM, 24 hr): 11.65 ± 0.78%
S (%) (HT-29 cells [4]; HT-29, 0.5 μM, 24 hr): 5.9 ± 1.13 %
Sub G1 (%) (HT-29 cells [4]; HT-29, 0.5 μM, 24 hr): 14.65 ± 4.03 %
G0/G1 (%) (HT-29 cells [4]; HT-29, 0.5 μM, 36 hr): 48.28 ± 6.29 %
G2/M (%) (HT-29 cells [4]; HT-29, 0.5 μM, 36 hr): 5.8 ± 0.84%
S (%) (HT-29 cells [4]; HT-29, 0.5 μM, 36 hr): 5.8 ± 0.68 %
Sub G1 (%) (HT-29 cells [4]; HT-29, 0.5 μM, 36 hr): 37.88 ± 7.42 %
G0/G1 (%) (HT-29 cells [4]; HT-29, 2 μM, 24 hr): 54.35 ± 5.02%
G2/M (%) (HT-29 cells [4]; HT-29, 2 μM, 24 hr): 12.35 ± 2.33%
S (%) (HT-29 cells [4]; HT-29, 2 μM, 24 hr): 9.85 ± 1.2%
Sub G1 (%) (HT-29 cells [4]; HT-29, 2 μM, 24 hr): 20.05 ± 5.87 %
G0/G1 (%) (HT-29 cells [4]; HT-29, 2 μM, 36 hr): 29.15 ± 3.18 %
G2/M (%) (HT-29 cells [4]; HT-29, 2 μM, 36 hr): 14.4 ± 0.71 %
S (%) (HT-29 cells [4]; HT-29, 2 μM, 36 hr): 12.3 ± 1.13 %
Sub G1 (%) (HT-29 cells [4]; HT-29, 2 μM, 36 hr): 40.25 ± 3.32 %
G0/G1 (%) (HT-29 cells [4]; HT-29, 5 μM, 24 hr): 49.8 ± 7.07%
G2/M (%) (HT-29 cells [4]; HT-29, 5 μM, 24 hr): 13.25 ± 0.21%
S (%) (HT-29 cells [4]; HT-29, 5 μM, 24 hr): 12.9 ± 0%
Sub G1 (%) (HT-29 cells [4]; HT-29, 5 μM, 24 hr): 19.6 ± 7.95 %
G0/G1 (%) (HT-29 cells [4]; HT-29, 5 μM, 36 hr): 27.85 ± 1.06 %
G2/M (%) (HT-29 cells [4]; HT-29, 5 μM, 36 hr): 3.2 ± 0.85 %
S (%) (HT-29 cells [4]; HT-29, 5 μM, 36 hr): 5.9 ± 0.42 %
Sub G1 (%) (HT-29 cells [4]; HT-29, 5 μM, 36 hr): 61.85 ± 2.47 %
cell cycle phases after pre-treatment then 5-FU (in words) (HT-29 cells [4]; HT-29, pre-treatment, then 5-FU): increase of sub G1 phase and decrease of G2/M phase
